Test results reported in US20240262804A1, “NITROGEN-CONTAINING HETEROCYCLIC KETONES, PREPARATION METHODS AND MEDICINAL USES THEREOF” (Hansoh Bio LLC, priority 2021, published 2024).
Marks after values point to notes of the source that are not given here.

Key:
[1] = Pharmacokinetic profiles in male SD rats (IV and PO); assay type: in vivo, rat; conditions: IV 1 mg/kg, PO 5 mg/kg, route for this parameter not given; for clearance / half-life / Vd: rat, plasma; for Vd: read-out: VSS
Procedure: Pharmacokinetic profile of compounds were determined by IV (1 mg/Kg) and PO (5 mg/Kg) administrations in male SD rats. Compounds were administrated with free base and formulated in 5% DMAC+25% PEG-400+70%(30% 2-HP-β-CD in water). The compounds were dosed at 1 mg/kg for intravenous and 5 mg/kg oral administration. Blood samples were collected at 0, 0.083, 0.25, 0.5, 1, 2, 4, 8 and 24 hours post dose, serial bleeding for plasma for the IV group. Blood samples were collected at 0, 0.25, 0.5, 1, 2, 4, 6, 8 and 24 hours post dose, serial bleeding for the PO group. Approximately 150 μL whole blood/time point were collected in K2EDTA tube via jugular vein. Blood sample was put on ice and centrifuged at 2000 g for 5 min to obtain plasma sample within 15 minutes. PK parameters were estimated by non-compartmental model using WinNonlin 8.2.

[2] = tested on: isolated rat ventricular myocytes; assay: Cardiomyocyte contractility assay (sarcomere shortening, IonOptix); assay type: cell-based; conditions: for Ratio of % FS 5 uM/15 uM: 5 uM versus 15 uM
Procedure: The effects of compounds on sarcomere shortening in isolated rat ventricular myocytes were assessed using the IonOptix apparatus.
Myocytes were placed in a chamber mounted on the stage of an inverted microscope and continuously superfused with oxygenated Tyrode solution containing (in millimolar): 121 NaCl, 5 KCl, 2.8 NaCH3CO2, MgCl2·6H2O, Glucose, NaHCO3, Na2HPO4. 7H2O, and 1.5 mM CaCl2). Solution was preheated at 36±1° C. and electrical-field stimulated at 1 Hz by 2 platinum electrodes connected to a Myopacer field stimulator (IonOptix Corporation) with 4 ms square-wave bipolar pulses (10 V). Cells were illuminated by the microscope light. The cell image was collected by a x40 ultraviolet epifluorescence objective, diverted to the microscope side port, where the cell image was recorded by a charge coupled device (CCD) camera (MyoCam, IonOptix Corporation), converting optical brightness (pixels) into electrical signals (voltage). The MyoCam configuration allowed acquisition of up to 240 images per second (240 Hz frame rate). Contractile properties of the myocytes were analyzed in real time by a video detector and a personal computer-based data acquisition system (Ionwizard 6.0, IonOptix Corporation). Only myocytes with clear striations, quiescent prior to pacing with a resting sarcomere length greater or equal to 1.75 μm were used, since this is presumed to represent the lower limit for healthy cells.
Sarcomere shortening was monitored in control solution (predrug) until stable recordings were obtained (baseline period). To determine the response to compounds, myocytes were first superfused for 60 seconds with Tyrode's buffer followed by at least a 5 minute—(or until steady state was reached, up to 10 min) superfusion of compound. Each cell was subjected to 2 concentrations (5 and 15 uM or 5 and 10 uM) of test compounds. For some cells, a washout period was performed after the last concentration. Duration of the washout period was variable, resulting in variability in the washout data. In separate cells, a single concentration of isoproterenol (100 nM) was applied. Data were continuously recorded using the IonOptix software. Contractility data were analyzed using Ionwizard software (IonOptix). For each cell, 10-15 contractility transients at baseline and after treatment were averaged and compared.

bovine cardiac myosin = bovine cardiac myosin (Bos taurus (Bovine), UniProt Q9BE39); assay: Myosin inhibitory potency: PK/LDH-coupled ATPase assay on bovine skinned cardiac myofibrils; assay type: biochemical; conditions: pCa=6.25, 50 μM ATP, 25° C., read-out: myosin inhibition activity IC50
Chain of bovine cardiac myosin (Q9BE39 whole entry): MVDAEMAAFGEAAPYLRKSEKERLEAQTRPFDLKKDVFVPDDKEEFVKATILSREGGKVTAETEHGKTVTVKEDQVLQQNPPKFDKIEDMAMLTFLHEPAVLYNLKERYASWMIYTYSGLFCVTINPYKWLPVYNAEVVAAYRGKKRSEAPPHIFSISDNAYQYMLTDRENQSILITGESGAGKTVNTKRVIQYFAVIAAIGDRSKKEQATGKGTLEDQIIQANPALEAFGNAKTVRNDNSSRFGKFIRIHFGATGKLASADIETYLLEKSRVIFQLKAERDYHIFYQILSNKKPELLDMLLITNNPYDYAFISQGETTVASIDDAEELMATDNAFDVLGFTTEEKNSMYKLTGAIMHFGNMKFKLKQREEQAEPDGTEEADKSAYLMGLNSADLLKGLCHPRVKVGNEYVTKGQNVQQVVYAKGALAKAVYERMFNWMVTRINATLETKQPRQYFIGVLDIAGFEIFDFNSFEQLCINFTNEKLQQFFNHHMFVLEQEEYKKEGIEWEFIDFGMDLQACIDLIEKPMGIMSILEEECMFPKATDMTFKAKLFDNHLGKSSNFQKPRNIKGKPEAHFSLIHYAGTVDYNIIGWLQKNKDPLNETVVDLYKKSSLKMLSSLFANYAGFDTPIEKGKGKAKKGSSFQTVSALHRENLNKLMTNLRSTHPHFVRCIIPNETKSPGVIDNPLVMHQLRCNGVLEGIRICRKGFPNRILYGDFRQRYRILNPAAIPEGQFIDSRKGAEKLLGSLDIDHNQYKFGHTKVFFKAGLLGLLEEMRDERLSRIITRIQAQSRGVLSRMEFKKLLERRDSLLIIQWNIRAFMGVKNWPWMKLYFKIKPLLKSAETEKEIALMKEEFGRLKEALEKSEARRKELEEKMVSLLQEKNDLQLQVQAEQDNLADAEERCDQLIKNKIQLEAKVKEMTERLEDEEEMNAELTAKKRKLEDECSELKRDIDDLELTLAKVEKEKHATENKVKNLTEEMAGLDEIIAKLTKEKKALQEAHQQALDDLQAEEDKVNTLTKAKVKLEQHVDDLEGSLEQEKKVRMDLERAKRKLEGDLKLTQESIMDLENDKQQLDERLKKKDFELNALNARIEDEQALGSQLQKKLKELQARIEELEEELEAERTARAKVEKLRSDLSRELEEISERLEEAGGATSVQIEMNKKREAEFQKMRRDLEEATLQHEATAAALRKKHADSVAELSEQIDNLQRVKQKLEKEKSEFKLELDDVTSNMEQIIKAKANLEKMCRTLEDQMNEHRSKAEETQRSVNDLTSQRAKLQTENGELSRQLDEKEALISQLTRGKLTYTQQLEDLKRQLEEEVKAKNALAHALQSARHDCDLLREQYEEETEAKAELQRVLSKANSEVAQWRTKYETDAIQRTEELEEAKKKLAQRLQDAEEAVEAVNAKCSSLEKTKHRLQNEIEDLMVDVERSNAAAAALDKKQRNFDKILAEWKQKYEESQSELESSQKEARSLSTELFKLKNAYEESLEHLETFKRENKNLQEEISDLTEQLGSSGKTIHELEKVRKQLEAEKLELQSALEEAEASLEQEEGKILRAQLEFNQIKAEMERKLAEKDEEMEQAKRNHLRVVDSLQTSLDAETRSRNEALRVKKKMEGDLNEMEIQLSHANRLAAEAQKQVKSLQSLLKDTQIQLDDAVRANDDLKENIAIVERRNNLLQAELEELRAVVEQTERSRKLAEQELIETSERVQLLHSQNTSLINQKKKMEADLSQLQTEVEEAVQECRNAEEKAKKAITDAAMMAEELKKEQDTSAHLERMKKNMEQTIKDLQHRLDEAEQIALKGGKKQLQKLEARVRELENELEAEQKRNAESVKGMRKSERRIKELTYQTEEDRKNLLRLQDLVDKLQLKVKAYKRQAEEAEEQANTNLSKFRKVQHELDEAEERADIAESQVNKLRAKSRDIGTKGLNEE
Chain of bovine cardiac myosin (P85100 whole entry partner): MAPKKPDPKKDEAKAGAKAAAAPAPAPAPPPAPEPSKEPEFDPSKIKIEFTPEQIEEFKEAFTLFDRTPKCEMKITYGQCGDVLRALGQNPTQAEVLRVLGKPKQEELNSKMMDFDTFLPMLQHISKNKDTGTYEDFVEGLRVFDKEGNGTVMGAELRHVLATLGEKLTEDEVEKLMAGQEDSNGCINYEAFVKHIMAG
Chain of bovine cardiac myosin (Q3SZE5 whole entry partner): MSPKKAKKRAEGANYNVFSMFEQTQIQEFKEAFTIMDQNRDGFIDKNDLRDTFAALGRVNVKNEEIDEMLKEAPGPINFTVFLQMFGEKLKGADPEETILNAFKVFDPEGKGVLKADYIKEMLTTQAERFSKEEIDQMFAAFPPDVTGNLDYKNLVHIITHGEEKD
How it was run: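 Bovine left-ventricle skinned myofibrils (1 mg/mL) in PM12 buffer pH 6.8 at pCa 6.25, 50 μM ATP, PK/LDH-coupled NADH depletion read at 340 nm, 25 °C.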

[3] = biological target: bovine skinned cardiac myofibrils (myosin) (Bos taurus (Bovine), UniProt Q9BE39); assay: Myosin inhibitory potency comparison: ATPase assay, cardiac myofibrils; assay type: biochemical; conditions: pCa=6.25
Chain of bovine skinned cardiac myofibrils (myosin) (Q9BE39 whole entry): as the sequence (Q9BE39 whole entry) above
Chain of bovine skinned cardiac myofibrils (myosin) (P85100 whole entry partner): as the sequence (P85100 whole entry partner) above
Chain of bovine skinned cardiac myofibrils (myosin) (Q3SZE5 whole entry partner): as the sequence (Q3SZE5 whole entry partner) above
Procedure: (§1) In our experiments, bovine skinned cardiac myofibrils were isolated from the frozen bovine left ventricle as myosin's source in the ATPase assay. The calcium concentration that achieves a 50% (pCa50 or pCa=6.25) activation of the myofibril system was chosen as the final condition for assessing the activation activity according to the literature (DOI: 10.1074/jbc.M117.776815). Myofibrils ATPase activity was measured in a buffered solution containing 12 mM PIPES (piperazine-N, N′-bis(2-ethane sulfonic acid) and 2 mM magnesium chloride at pH 6.8 (PM12 buffer). Final assay conditions were 1 mg/mL of bovine cardiac myofibrils, 1:20 of stock PK/LDH (Sigma-Aldrich, Cat No. P0294-5X5ML), 50 μM ATP, 1 mM DTT (dithiothreitol), 0.75 mM NADH, 1.5 mM PEP at pCa50 (pCa=6.25). Compounds were dissolved in DMSO (dimethyl sulfoxide). Serial dilution of compounds was created such that the final desired concentration of compound would be achieved in a volume of 150 μL with a fixed DMSO concentration of 2% (v/v). 75 μL of a solution containing bovine cardiac myofibrils, PK/LDH, and calcium were added to a 96 well plate for a 7 point dose-response. In some circumstances, 10 point-response was used to repeat the ATPase assays on compounds of interest. Compounds were added to the myofibrils solution and incubated for 5 minutes. The enzymatic reaction was started with the addition of 75 μL of a solution containing ATP, PEP, NADH, compounds, and calcium. The ATPase activity was measured by reading absorbance at 340 nm in a PerkinElmer Victor Nivo plate reader at 25° C. in kinetic mode for 15 minutes using clear bottom plates. The slopes of the absorbance changes as a function of time for the first 10 minutes were normalized to slopes on the control wells containing all reagents, including DMSO, but without compounds. This normalized rate was then plotted as a function of small molecule concentration in GraphPad prism 9. The data were fitted to a four-parameter fit, and IC50 was calculated using Graphpad Prism 9.
(§2) Bovine skinned cardiac myofibrils were isolated from the frozen bovine left ventricle, and rabbit skinned skeletal myofibrils were isolated from the frozen rabbit Psoas major and minor muscles as myosin's source in the ATPase assay. The calcium concentration that achieves a 50% activation of the myofibril system (pCa=6.25 for bovine cardiac myofibrils and pCa=6 for rabbit skeletal myofibrils) was chosen as the final condition for assessing the activation activity according to the literature (DOI:10.1074/jbc.M117.776815). Rest of ATPase assay conditions are the same as illustrated in experiment 1.

[4] = tested on: rabbit skinned skeletal myofibrils (myosin); assay: Myosin inhibitory potency comparison: ATPase assay, skeletal myofibrils; assay type: biochemical; conditions: for Skeleta/Cardiac: ratio of skeletal IC50 to cardiac IC50
Procedure: as §1, §2

[5] = tested on: heart function (cardiac contractility); assay: Echocardiography assessment of acute pharmacodynamic effect in rat cardiac contractility; assay type: in vivo; conditions: Spraw-Dawley rats
Procedure: The Effect of Compounds on Heart Function was Determined by Echocardiography in Spraw-Dawley rats. Rats were under light anesthesia with 1-2% isoflurane. Compounds were dosed via oral gavage as single PO. Baseline heart functions were measured 1 day before dosing. The effect of compounds on heart function were measured at 1, 3, 6, and 24 hours post dosing. About 250 μL of whole blood was obtained at ˜1, 3, 6 and 24 hours post-dose via tail vein, immediately after the Echocardiography procedure. Blood was placed into a plasma separator tube containing K2 EDTA and kept on wet ice until processing. Blood samples were centrifuged at 2,000 g (4,400 rpm, Eppendorf 5417R) for 10 minutes at 4° C. Plasma samples were then transferred into micro-tubes and stored at −80° C. for future LC/MS analysis. The data were plotted as reduction of Fractional shortening vs plasma compound concentration. Therapeutic windows were determined as IC50/IC10 according to the literature (DOI: https://doi.org/10.1021/acs.jmedchem.1c01290).

[6] = rat ventricular myocytes, paced at 1 Hz

SMILES | DNAUC [1] | clearance [1] | half-life [1] | Vd [1] | IC50 (bovine cardiac myosin) | IC50 [3] | Skeleta/Cardiac [4] | potency in inhibiting fast skeletal myofibril activity (in words) ([4]; compared with cardiac myofibrils) | Ratio of % FS 5 uM/15 uM [2] | % FS (% reduction from baseline) at 5 uM [2, 6] | % FS (% reduction from baseline) at 15uM [2, 6] | Ratio of % FS 5 uM/10 uM ([2]; 5 uM versus 10 uM (cell marked *)) | % FS (% reduction from baseline) at 10 uM ([2]; 10 uM (cell marked *), rat ventricular myocytes, paced at 1 Hz) | effect on heart contractility at 20 mpk (FIG. 2) ([5]; single PO, 20 mpk) | effect on heart contractility, dose dependence (FIG. 2) ([5]; single PO, up to 10 mpk) | therapeutic window, plasma exposure vs fractional shortening (in words) ([5]; therapeutic window as IC50/IC10) | cardiac-skeletal myosin selectivity (in words) [4]
C[C@H](Nc1nc(=O)n(C2CCOCC2)c(=O)[nH]1)c1ccc(F)cc1Cl [Example 162] | 4195.1 ng·h/mL | 4.17 mL/min/kg | 3.74 h | 0.97 L/kg | – | – | – | – | 1.9 | 60.8 +/− 12.7% | 32.2 +/− 5.3% | – | – | – | – | – | –
CC(C)n1c(=O)nc(N[C@@H](C)C2CCCCC2)[nH]c1=O [Example 45] | – | – | – | – | 2800 nM | 7580 nM | 5.36 | – | – | – | – | – | – | – | – | – | –
Cc1cccc([C@H](C)Nc2nc(=O)n(C3CCOCC3)c(=O)[nH]2)c1 [Example 4] | 2299.6 ng·h/mL | 5.5 mL/min/kg | 3.35 h | 1.17 L/kg | – | 660 nM | – | – | – | 71.2 +/− 7.6% | – | 1.7* | 42.4 +/− 4.2* % | – | – | – | –
Cc1ccc([C@H](C)Nc2nc(=O)n(C3CCOCC3)c(=O)[nH]2)c(C)c1 [Example 168] | 13412.2 ng·h/mL | 1.33 mL/min/kg | 3.89 h | 0.32 L/kg | 1700 nM | – | – | – | 2.2 | 54.3 +/− 9.3% | 24.3 +/− 8.5% | – | – | – | – | – | –
C[C@H](Nc1nc(=O)n(C2CCOCC2)c(=O)[nH]1)c1ccc(F)cc1F [Example 10] | 1724.7 ng·h/mL | 9.17 mL/min/kg | 4.51 h | 1.78 L/kg | 1840 nM | 1500 nM | 29.01 | way less potent | 1.2 | 51 +/− 6% | 41.5 +/− 6.3% | – | – | do not further inhibit heart contractility at 20 mpk | dose dependent under 10 mpk | superior therapeutic windows | better cardiac-skeletal myosin selectivity

Further lines, with some results ahead:

DNAUC [1] | clearance [1] | half-life [1] | Vd [1] | IC50 (bovine cardiac myosin) | IC50 [3] | Skeleta/Cardiac [4] | potency in inhibiting fast skeletal myofibril activity (in words) ([4]; compared with cardiac myofibrils) | SMILES | Ratio of % FS 5 uM/15 uM [2] | % FS (% reduction from baseline) at 5 uM [2, 6] | % FS (% reduction from baseline) at 15uM [2, 6] | Ratio of % FS 5 uM/10 uM ([2]; 5 uM versus 10 uM (cell marked *)) | % FS (% reduction from baseline) at 10 uM ([2]; 10 uM (cell marked *), rat ventricular myocytes, paced at 1 Hz) | effect on heart contractility at 20 mpk (FIG. 2) ([5]; single PO, 20 mpk) | effect on heart contractility, dose dependence (FIG. 2) ([5]; single PO, up to 10 mpk) | therapeutic window, plasma exposure vs fractional shortening (in words) ([5]; therapeutic window as IC50/IC10) | cardiac-skeletal myosin selectivity (in words) [4]
7631.0 ng·h/mL | 2.5 mL/min/kg | 3.95 h | 0.57 L/kg | 470 nM | – | – | – | C[C@H](Nc1nc(=O)n(C2CCOCC2)c(=O)[nH]1)c1cc(F)cc(Cl)c1 [Example 172] | 2.2 | 63.6 +/− 3.3% | 28.9 +/− 8.7% | – | – | – | – | – | –
5052.2 ng·h/mL | 3.17 mL/min/kg | 5.47 h | 0.97 L/kg | 1130 nM | – | – | – | Cc1cc([C@H](C)Nc2nc(=O)n(C3CCOCC3)c(=O)[nH]2)ccc1F [Example 156] | 2.4 | 61.5 +/− 5.2% | 26.1 +/− 4% | – | – | – | – | – | –
– | – | – | – | 1210 nM | 1790 nM | 2.39 | – | C[C@H](Nc1nc(=O)n(C2CCOCC2)c(=O)[nH]1)c1ccc(OC(F)(F)F)cc1 [Example 152] | 2.4 | 62.9 +/− 6.2% | 26.7 +/− 6.4% | – | – | – | – | – | –
